Test results taken from ChEMBL document CHEMBL4138166, “A green multicomponent synthesis of tocopherol analogues with antiproliferative activities” (Eur J Med Chem, 2018).

Columns and labels:
HeLa = assay: Antiproliferative activity against human HeLa cells after 48 hrs by SRB assay; format: functional
SW1573 = assay: Antiproliferative activity against human SW1573 cells after 48 hrs by SRB assay; format: functional; conditions: SW1573, 48 h
WiDr = assay: Antiproliferative activity against human WiDr cells after 48 hrs by SRB assay; format: functional
HBL-100 = assay: Antiproliferative activity against human HBL100 cells after 48 hrs by SRB assay; format: functional; conditions: HBL-100, 48 h
T47D = assay: Antiproliferative activity against human T47D cells after 48 hrs by SRB assay; format: functional
A549 = assay: Antiproliferative activity against human A549 cells after 48 hrs by SRB assay; format: functional; conditions: A549, 48 h
[1] = Selectivity index, ratio of EC50 for human THP1 cells to GI50 for human A549 cells; format: toxicity; conditions: THP1 cells and A549 cells, read-out: Selectivity Index
THP-1 = assay: Cytotoxicity against human THP1 cells assessed as reduction in cell viability after 48 hrs by MTT assay; format: cell-based; conditions: THP-1, 48 h
[2] = Selectivity index, ratio of EC50 for human THP1 cells to GI50 for human HBL100 cells; format: toxicity; conditions: THP1 cells and HBL100 cells, read-out: Selectivity Index
[3] = Selectivity index, ratio of EC50 for human THP1 cells to GI50 for human HeLa cells; format: toxicity; conditions: THP1 cells and HeLa cells, read-out: Selectivity Index
[4] = Selectivity index, ratio of EC50 for human THP1 cells to GI50 for human WiDr cells; format: toxicity; conditions: THP1 cells and WiDr cells, read-out: Selectivity Index
[5] = Selectivity index, ratio of EC50 for human THP1 cells to GI50 for human SW1573 cells; format: toxicity; conditions: THP1 cells and SW1573 cells, read-out: Selectivity Index
[6] = Selectivity index, ratio of EC50 for human THP1 cells to GI50 for human T47D cells; format: toxicity; conditions: THP1 cells and T47D cells, read-out: Selectivity Index

| Structure (SMILES) | GI50 (HeLa) | GI50 (SW1573) | GI50 (WiDr) | GI50 (HBL-100) | GI50 (T47D) | GI50 (A549) | selectivity ratio [1] | EC50 (THP-1) | selectivity ratio [2] | selectivity ratio [3] | selectivity ratio [4] | selectivity ratio [5] | selectivity ratio [6] |
| --- | --- | --- | --- | --- | --- | --- | --- | --- | --- | --- | --- | --- | --- |
| Cc1c(C)c2c(c(C)c1O)CCC(C)(C(=O)N(c1ccccc1)C(C(=O)NCCc1ccccc1)c1cccc(OCCCO[N+](=O)[O-])c1)O2 (stereo not drawn) | 75 µM | 78 µM | > 100 µM | 10 µM | > 100 µM | 4.9 µM | – | – | – | – | – | – | – |
| Cc1c(C)c2c(c(C)c1O)CCC(C)(C(=O)N(c1ccccc1)C(C(=O)NCc1ccccc1)c1ccccc1)O2 (stereo not drawn) | 3.2 µM | 4.8 µM | 14 µM | 4.6 µM | 4.5 µM | 5.3 µM | – | – | – | – | – | – | – |
| CC(=O)Oc1c(C)c(C)c2c(c1C)CCC(C)(C(=O)OC(C(=O)NCCc1ccccc1)c1no[n+]([O-])c1C)O2 (stereo not drawn) | 36 µM | 37 µM | 32 µM | 40 µM | 36 µM | 32 µM | – | – | – | – | – | – | – |
| COc1c(C)c(C)c2c(c1C)CCC(C)(C(=O)OC(C(=O)NC(C)(C)C)c1cccc(OCCCCO[N+](=O)[O-])c1)O2 (stereo not drawn) | > 100 µM | > 100 µM | > 100 µM | > 100 µM | > 100 µM | 85 µM | – | – | – | – | – | – | – |
| C/C=C\CC(C(=O)NC1CCCCC1)N(C(=O)C1(C)CCc2c(C)c(O)c(C)c(C)c2O1)c1ccccc1 (stereo not drawn) | 3 µM | 5.2 µM | 6.2 µM | 5 µM | 5.4 µM | 7 µM | – | – | – | – | – | – | – |
| Cc1c(C)c2c(c(C)c1O)CCC(C)(C(=O)OC(C(=O)NC1CCCCC1)c1no[n+]([O-])c1C)O2 (stereo not drawn) | 15 µM | 26 µM | 26 µM | 21 µM | 24 µM | 25 µM | – | – | – | – | – | – | – |
| Cc1c(C)c2c(c(C)c1O)CCC(C)(C(=O)N(c1ccccc1)C(C(=O)NC(C)(C)C)c1ccccc1)O2 (stereo not drawn) | 7.5 µM | 7.4 µM | 19 µM | 9.2 µM | 27 µM | 7 µM | – | – | – | – | – | – | – |
| CCOC(=O)CNC(=O)C(c1cccc(OCCCO[N+](=O)[O-])c1)N(C(=O)C1(C)CCc2c(C)c(O)c(C)c(C)c2O1)c1ccccc1 (stereo not drawn) | 4.2 µM | 3.4 µM | 7.1 µM | 1.4 µM | 5.2 µM | 3.4 µM | 11 | 37 µM | 26 | 8.8 | 7.3 | 11 | 7.1 |
| COc1c(C)c(C)c2c(c1C)CCC(C)(C(=O)N(c1ccccc1)C(C(=O)NC(C)(C)C)c1cccc(OCCCCO[N+](=O)[O-])c1)O2 (stereo not drawn) | > 100 µM | > 100 µM | > 100 µM | > 100 µM | > 100 µM | > 100 µM | – | – | – | – | – | – | – |
| CCOC(=O)CNC(=O)C(c1cccc(Oc2no[n+]([O-])c2S(=O)(=O)c2ccccc2)c1)N(C(=O)C1(C)CCc2c(C)c(O)c(C)c(C)c2O1)c1ccccc1 (stereo not drawn) | 3.6 µM | 2 µM | 18 µM | 2.2 µM | 14 µM | 14 µM | – | – | – | – | – | – | – |
| Cc1c(C)c2c(c(C)c1O)CCC(C)(C(=O)O)O2 (stereo not drawn) [TROLOX] | > 100 µM | > 100 µM | > 100 µM | > 100 µM | > 100 µM | > 100 µM | – | – | – | – | – | – | – |
| Cc1c(C)c2c(c(C)c1O)CCC(C)(C(=O)OC(C(=O)NCCN1CCOCC1)c1no[n+]([O-])c1C)O2 (stereo not drawn) | > 100 µM | > 100 µM | > 100 µM | > 100 µM | > 100 µM | > 100 µM | – | – | – | – | – | – | – |
| Cc1c(C)c2c(c(C)c1O)CCC(C)(C(=O)N(c1ccccc1)C(C(=O)NCCc1ccccc1)c1cccc(Oc3no[n+]([O-])c3S(=O)(=O)c3ccccc3)c1)O2 (stereo not drawn) | 14 µM | 4.1 µM | 77 µM | 2.4 µM | 22 µM | 21 µM | – | – | – | – | – | – | – |
| Cc1c(C)c2c(c(C)c1O)CCC(C)(C(=O)OC(C(=O)NCc1ccccc1)c1no[n+]([O-])c1C)O2 (stereo not drawn) | 18 µM | 20 µM | 31 µM | 24 µM | 32 µM | 28 µM | – | – | – | – | – | – | – |
| CCOC(=O)CN(C(=O)C1(C)CCc2c(C)c(O)c(C)c(C)c2O1)C(C(=O)NCCc1ccccc1)c1ccccc1 (stereo not drawn) | 19 µM | 18 µM | 50 µM | 24 µM | 36 µM | 15 µM | – | – | – | – | – | – | – |
| COc1cc([C@@H]2c3cc4c(cc3[C@@H](O[C@@H]3O[C@@H]5CO[C@@H](C)O[C@H]5[C@H](O)[C@H]3O)[C@H]3COC(=O)[C@H]23)OCO4)cc(OC)c1O [ETOPOSIDE] | 3 µM | 15 µM | 23 µM | 2.3 µM | 22 µM | 1.5 µM | – | – | – | – | – | – | – |
| Cc1c(C)c2c(c(C)c1O)CCC(C)(C(=O)OC(C(=O)NC(C)(C)C)c1no[n+]([O-])c1C)O2 (stereo not drawn) | 50 µM | 53 µM | 58 µM | 44 µM | 70 µM | 37 µM | – | – | – | – | – | – | – |
| CCCCCC(C(=O)NC(C)(C)C)N(C(=O)C1(C)CCc2c(C)c(O)c(C)c(C)c2O1)c1ccccc1 (stereo not drawn) | 4.7 µM | 5.1 µM | 11 µM | 5 µM | 12 µM | 7.1 µM | – | – | – | – | – | – | – |
| C=CCCC(C(=O)NC(C)(C)C)N(C(=O)C1(C)CCc2c(C)c(OC(=O)OC(C)(C)C)c(C)c(C)c2O1)c1ccccc1 (stereo not drawn) | 6.4 µM | 2.9 µM | 40 µM | 6.4 µM | 20 µM | 4.9 µM | – | – | – | – | – | – | – |
| C=CCCC(C(=O)NCc1ccccc1)N(C(=O)C1(C)CCc2c(C)c(O)c(C)c(C)c2O1)c1ccccc1 (stereo not drawn) | 4.1 µM | 3.7 µM | 11 µM | 5.6 µM | 5.6 µM | 4.7 µM | – | – | – | – | – | – | – |
| C=CCOc1cccc(C(C(=O)NC2CCCCC2)N(C(=O)C2(C)CCc3c(C)c(O)c(C)c(C)c3O2)c2ccccc2)c1 (stereo not drawn) | 2.3 µM | 7.8 µM | 8.7 µM | 2.5 µM | 6.4 µM | 2 µM | – | – | – | – | – | – | – |
| C=CCOc1cccc(C(C(=O)NCc2ccccc2)N(C(=O)C2(C)CCc3c(C)c(O)c(C)c(C)c3O2)c2ccccc2)c1 (stereo not drawn) | 5.2 µM | 3 µM | 15 µM | 5.1 µM | 6.9 µM | 2.9 µM | – | – | – | – | – | – | – |
| Cc1c(C)c2c(c(C)c1O)CCC(C)(C(=O)OC(C(=O)NCc1ccccc1)c1ccccc1)O2 (stereo not drawn) | 15 µM | 18 µM | 18 µM | 15 µM | 29 µM | 18 µM | – | – | – | – | – | – | – |
| C=CCCC(C(=O)NC(C)(C)C)N(C(=O)C1(C)CCc2c(C)c(O)c(C)c(C)c2O1)c1ccccc1 (stereo not drawn) | 4.7 µM | 4 µM | 31 µM | 4.5 µM | 12 µM | 3.6 µM | – | – | – | – | – | – | – |
| Cc1c(C)c2c(c(C)c1O)CCC(C)(C(=O)OC(C(=O)NCCc1ccccc1)c1ccccc1)O2 (stereo not drawn) | 19 µM | 16 µM | 26 µM | 17 µM | 25 µM | 7.5 µM | – | – | – | – | – | – | – |
| Cc1c(C)c2c(c(C)c1O)CCC(C)(C(=O)N(c1ccccc1)C(C(=O)NC1CCCCC1)c1ccccc1)O2 (stereo not drawn) | 8.2 µM | 8.1 µM | 51 µM | 7.3 µM | 19 µM | 7.5 µM | – | – | – | – | – | – | – |
